Patent publication US9062041B2 (Bayer Intellectual Property GmbH, priority 2011, dated 2015)

Assays:
Type in all cases: cell-based
[1] = target: EP2 subtype of the human PGE2 receptor (Homo sapiens, UniProt P43116); test: cAMP antagonism test on the human EP2 receptor (HTRF cAMP detection); conditions: hEP2 receptor, read-out: Antagonism hEP2 IC50
Summary of the method: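 Cells expressing human EP2 preincubated 20 min at RT with compound (0.8 nM–16.5 μM), then stimulated 60 min with PGE2 (3× solution 1.5 nM) in PBS-IBMX. After 20 min lysis, cAMP measured by competitive HTRF with cAMP-d2 and Eu cryptate anti-cAMP antibody (665/620 nm ratio).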

[2] = target: EP4 subtype of the human PGE2 receptor (Homo sapiens, UniProt P35408); test: cAMP antagonism test on the human EP4 receptor (HTRF cAMP detection); conditions: selectivity towards hEP4, IC50 measured by cAMP antagonism test
Summary of the method: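 Cells expressing human EP4 preincubated 20 min at RT with compound (0.8 nM–16.5 μM), then stimulated with PGE2 (0.3 nM in 3× solution, with IBMX) 60 min at RT. After lysis, cAMP measured by HTRF competition (665/620 nm ratio); antagonism seen as rise in FRET signal.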

human PGD receptor = target: T1, human PGD receptor (Homo sapiens, UniProt Q13258); test: cAMP antagonism test on the human prostaglandin D receptor (HTRF cAMP detection); conditions: selectivity towards hDP, IC50 measured by cAMP antagonism test
T1 sequence (Q13258 1-359): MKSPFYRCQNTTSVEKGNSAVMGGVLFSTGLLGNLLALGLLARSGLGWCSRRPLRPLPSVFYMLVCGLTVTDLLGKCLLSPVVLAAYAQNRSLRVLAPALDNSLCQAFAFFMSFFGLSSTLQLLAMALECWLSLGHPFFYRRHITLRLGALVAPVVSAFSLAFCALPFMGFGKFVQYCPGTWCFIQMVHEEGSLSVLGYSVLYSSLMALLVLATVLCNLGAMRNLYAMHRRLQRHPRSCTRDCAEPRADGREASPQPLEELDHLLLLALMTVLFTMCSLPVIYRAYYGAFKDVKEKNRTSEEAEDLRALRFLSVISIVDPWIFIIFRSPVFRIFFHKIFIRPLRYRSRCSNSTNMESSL
Summary of the method: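 Cells pre-mixed with cAMP-d2 were preincubated with compound (0.8 nM–16.5 μM) for 20 min at RT, then stimulated with 3× PGD2 solution (6 nM, in PBS-IBMX) for 30 min at RT. After lysis (20 min), HTRF read at 665/620 nm; antagonism seen as rise in FRET ratio.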

EP2 subtype of the human PGE2 receptor, sequence (P43116 whole entry): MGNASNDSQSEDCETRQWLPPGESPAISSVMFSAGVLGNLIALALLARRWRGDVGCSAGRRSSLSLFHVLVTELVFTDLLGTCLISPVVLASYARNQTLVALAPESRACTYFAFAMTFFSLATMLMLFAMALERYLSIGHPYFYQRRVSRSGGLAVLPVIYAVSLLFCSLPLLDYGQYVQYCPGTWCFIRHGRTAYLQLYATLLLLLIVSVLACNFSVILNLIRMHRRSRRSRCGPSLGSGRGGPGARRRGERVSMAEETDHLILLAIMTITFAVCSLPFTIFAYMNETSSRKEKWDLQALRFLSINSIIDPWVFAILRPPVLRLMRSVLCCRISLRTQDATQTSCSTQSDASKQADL
EP4 subtype of the human PGE2 receptor, sequence (P35408 whole entry): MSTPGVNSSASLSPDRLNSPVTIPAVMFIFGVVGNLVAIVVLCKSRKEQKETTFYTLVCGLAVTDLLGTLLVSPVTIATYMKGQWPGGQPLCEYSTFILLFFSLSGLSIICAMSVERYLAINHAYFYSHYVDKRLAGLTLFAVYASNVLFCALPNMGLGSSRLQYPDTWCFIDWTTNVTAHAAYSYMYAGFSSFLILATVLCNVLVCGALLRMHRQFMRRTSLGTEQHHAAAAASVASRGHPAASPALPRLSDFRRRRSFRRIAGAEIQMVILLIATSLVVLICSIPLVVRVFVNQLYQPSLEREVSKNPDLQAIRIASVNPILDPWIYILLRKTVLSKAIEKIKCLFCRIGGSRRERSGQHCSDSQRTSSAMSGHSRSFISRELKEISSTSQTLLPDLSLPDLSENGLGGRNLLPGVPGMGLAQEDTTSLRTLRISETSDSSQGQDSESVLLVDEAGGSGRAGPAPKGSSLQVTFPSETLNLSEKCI

Compound | IC50 [1] | Selectivity hEP2/hEP4 [2] | Selectivity hEP2/hDP (human PGD receptor)
COCCNC(=O)c1ccc2nn(CC3CCN(C(=O)c4ccc(Br)cc4F)CC3)cc2c1C [Example 8, 2-{[1-(4-bromo-2-fluorobenzoyl)piperidin-4-yl]methyl}-N-(2-methoxyethyl)-4-methyl-2H-indazol-5-carboxamide] | 9.37 nM | xxx (xxx > 100) | xxx (xxx > 100)
Cc1c(C(=O)NCCO)ccc2nn(CC3CCN(C(=O)c4ccc(-c5ccc(F)cc5)cc4)CC3)cc12 [Example 410, 2-({1-[(4′-fluorobiphenyl-4-yl)carbonyl]piperidin-4-yl}methyl)-N-(2-hydroxyethyl)-4-methyl-2H-indazol-5-carboxamide] | 90.4 nM | xxx (xxx > 100) | xxx (xxx > 100)
Cc1c(C(=O)NCC2CCCCO2)ccc2nn(CC3CCN(C(=O)c4ccc(Oc5ccc(C(F)(F)F)cc5)cc4)CC3)cc12 (single isomer, unassigned) [Example 417, (S or R)-4-methyl-N-(3,4,5,6-tetrahydro-2H-pyran-2-ylmethyl)-2-[(1-{4-[4-(trifluoromethyl)phenoxy]benzoyl}piperidin-4-yl)methyl]-2H-indazol-5-carboxamide] | 9.75 nM | xxx (xxx > 100) | xxx (xxx > 100)
Cc1c(C(=O)NCC2CCCCO2)ccc2nn(CC3CCN(C(=O)c4ccc(Cl)cc4)CC3)cc12 (single isomer, unassigned) [Example 241, (S or R)-2-{[1-(4-chlorobenzoyl)piperidin-4-yl]methyl}-4-methyl-N-(3,4,5,6-tetrahydro-2H-pyran-2-ylmethyl)-2H-indazol-5-carboxamide] | 9.03 nM | xxx (xxx > 100) | xxx (xxx > 100)
Cc1c(C(=O)NCC(C)OC2CCC2)ccc2nn(CC3CN(C(=O)c4ccc(Cl)cc4)C3)cc12 (racemic) [Example 154, (+/−)-2-{[1-(4-chlorobenzoyl)azetidin-3-yl]methyl}-N-[2-(cyclobutyloxy)propyl]-4-methyl-2H-indazol-5-carboxamide] | 80.8 nM | xxx (xxx > 100) | xxx (xxx > 100)
COCCNC(=O)c1ccc2nn(CC3CCN(C(=O)c4ccc(Oc5ccc(F)cc5)cc4)CC3)cc2c1OCC(F)(F)F [Example 233, 2-({1-[4-(4-fluorophenoxy)benzoyl]piperidin-4-yl}methyl)-N-(2-methoxyethyl)-4-(2,2,2-trifluoroethoxy)-2H-indazol-5-carboxamide] | 39.7 nM | xxx (xxx > 100) | xxx (xxx > 100)
COCCNC(=O)c1ccc2nn(CC3CCN(C(=O)c4ccc(-c5ccc(F)cc5)cc4)CC3)cc2c1OCC(F)(F)F [Example 234, 2-({1-[(4′-fluorobiphenyl-4-yl)carbonyl]piperidin-4-yl}methyl)-N-(2-methoxy-ethyl)-4-(2,2,2-trifluoroethoxy)-2H-indazol-5-carboxamide] | 47.7 nM | xxx (xxx > 100) | xxx (xxx > 100)
Cc1c(C(=O)NCCS(C)(=O)=O)ccc2nn(CC3CCN(C(=O)c4ccc(Oc5ccc(C(F)(F)F)nc5)cc4)CC3)cc12 [Example 397, N-(2-mesylethyl)-4-methyl-2-{[1-(4-{[6-(trifluoromethyl)pyridin-3-yl]oxy}-benzoyl)piperidin-4-yl]methyl}-2H-indazol-5-carboxamide] | 12.5 nM | xxx (xxx > 100) | xxx (xxx > 100)
